Counter-ions that a name gives are not always drawn.
Legend:
[1] = system: peripheral blood mononuclear cells (PBMC); assay: Cytotoxicity of test compounds in PBMC, cell viability by MTS reagent; type: cell-based, human
Experimental: (§1) TNF-α production by LPS in peripheral blood mononuclear cells (PBMC) was measured according to the method described by Henry et al (J. Bioorg. Med. Chem. Lett., 8: 3335-3340, 1998). Briefly, blood was collected from healthy donors into Potassium EDTA vacutainer tubes (Vacutest Plast/Becton Dickinson). PBMC were isolated using gradient centrifugation in Ficoll-Paque solution (Pharmacia). Isolated PBMC were suspended in RPMI 1640 culture medium (Gibco BRL, Pasley, UK) containing 10% fetal bovine serum (FBS) (Hyclone, Utah, USA), 100 U/ml penicillin (Sigma Chemical Co. St Louis, Mo.) and 100 μg/ml streptomycin (Sigma Chemical Co. St Louis, Mo.). The cell concentration was adjusted to 1×10^6 cells/ml. The viability as determined by trypan blue dye exclusion was uniformly ≧98%. The cell suspension (100 μl) was added to the wells of a 96-well culture plate. Following cell plating, 79 μl of the culture medium and 1 μl of eight different concentrations of the test compounds (final concentration 0.03, 0.1, 0.3, 1, 3, 10, 30, 100 μM) dissolved in DMSO (dimethylsulfoxide, Sigma, Mo., USA) were added to the cells. The final concentration of DMSO was adjusted to 0.5%. The appropriate DMSO concentration was used as control. Rolipram (30 μM) was used as a standard compound. The plates were incubated for 30 min at 37° C. in an atmosphere of 5% CO2. Finally, 20 μl (10 μg/ml) per well of LPS, (Escherchia coli 0127:B8, Sigma Chemical Co., St. Louis, Mo.) was added, for a final concentration of 1 μg/ml. The plates were incubated at 37° C. for 4.5 h in an atmosphere of 5% CO2. To determine the cytotoxicity of the test compounds, the cell viability was assessed using MTS (3-(4,5-dimethylthiazol-2-yl)-5-(3-carboxymethoxyphenyl)-2-(4-sulfonyl)-2H-tetrazolium) reagent (Promega) after 4.5 h of incubation. Supernatants were harvested and assayed for TNF-α by ELISA as described by the manufacturer (R&D Systems, MN, BD Biosciences Pharmingen) or by cytotoxicity bioassay in L929 cells. The 50% inhibitory concentration (IC50) values were calculated by a nonlinear regression method using GraphPad software (Prism 3.03)

TNF-α [2] = assay: LPS-induced TNF-α release in BALB/c mice; type: in vivo; conditions: Mus musculus, LPS 1 mg/kg i.p. 1 h after dosing, plasma TNF-α 1.5 h after LPS, read-out: % inhibition (Mean ± SE*); for inhibition in vivo at 100 mg/kg: 100 mg/kg po; for inhibition in vivo at 30 mg/kg: 30 mg/kg po
Experimental: The protocol described by Fukuda T. et al (Eur. J. Pharmacol., 391: 317-320, 2000) was followed. BALB/c mice were divided into groups of five to ten each. The test compound, suspended in Tween 80-0.5% carboxy methylcellulose (CMC), with a few drops of Tween 80 as wetting agent if necessary, was administered orally (p.o.) to the mice. One hour later, LPS dissolved in sterile, pyrogen-free saline was administered i.p. at the dose of 1 mg/kg. The negative control group received saline as an i.p injection, while all other groups received LPS. Rolipram (30 mg/kg) was used as the standard drug. One and a half hours later, blood was collected in heparin. Plasma was separated by centrifugation at 13000 rpm (Heraeus Biofuge Pico Centrifuge) at room temperature, aliquoted and stored at −70° C. until analysis.
TNF-α levels in the blood samples were assayed using ELISA and % inhibition of TNF-α release compared to the control group was calculated.

TNF-α [3] = assay: LPS-induced TNF-α production in peripheral blood mononuclear cells (secondary screening); type: cell-based; conditions: 4.5 h, TNF-α production in PBMC, LPS 1 μg/ml, ELISA or L929 bioassay
Experimental: as §1

TNF-α [4] = assay: Whole blood cell culture assay: LPS-induced TNF-α release (primary screening); type: cell-based, human; conditions: Homo sapiens, Whole blood cell; test compound 1 μM; diluted whole blood of healthy donors; LPS 1 μg/ml, 4.5 h; vs DMSO control
Experimental: TNF-α production by lipopolysaccharide (LPS) in whole blood was measured according to the method described by Wilson et al (J. Immunol. Methods, 139: 233-240, 1991). Briefly, blood was collected from healthy donors into potassium EDTA vacutainer tubes (Vacutest Plast/Becton Dickinson) and diluted with RPMI 1640 culture medium (Gibco BRL, Pasley, UK) containing 100 U/ml penicillin and 100 μg/ml streptomycin, (100× solution, Sigma Chemical Co. St Louis, Mo.) with no added serum. The white blood cell count was adjusted to 1×10^6 cells/ml and 100 μl/well of the diluted blood was transferred into 96-well culture plates. Following cell plating, 79 μl of culture medium and 1 μl of the test compounds (final concentration 1 μM) dissolved in DMSO (dimethylsulfoxide, Sigma, Mo., USA) was added to the cells. The final concentration of DMSO was adjusted to 0.5%. 1 μl of vehicle (0.5% DMSO) was used as control. Rolipram (100 μM) was used as a standard compound. The plates were incubated for 30 min at 37° C. in an atmosphere of 5% CO2. Finally, 20 μl (10 μg/ml) per well of LPS (Escherchia coli 0127:B8, Sigma Chemical Co., St. Louis, Mo.) was added, for a final concentration of 1 μg/ml. Plates were incubated at 37° C. for 4.5 h in an atmosphere of 5% CO2. Supernatants were harvested and assayed for TNF-α by ELISA as described by the manufacturer (R&D Systems, MN) or by cytotoxicity bioassay in L929 cells. Percent inhibition of TNF-α release in comparison to the control was calculated.

melting point | IC50 (TNF-α [3]) [µM] | Structure (SMILES) | % toxicity (10 μM), 5 h [1] [%] | inhibition in vivo at 10 mg/kg (TNF-α [2]; 10 mg/kg po) [%] | inhibition in vivo at 100 mg/kg (TNF-α [2]) [%] | inhibition at 1 µM (TNF-α [4]) [%] | inhibition in vivo at 30 mg/kg (TNF-α [2]) [%]
258 to 260 °C | 8.6 | COC(=O)c1cc(C)c2c(c1)S(=O)(=O)Cc1cc(N)cc(Cl)c1O2 [Example 1, 2-Amino-4-chloro-6-methyl-10,10-dioxo-10,11-dihydro-5-oxa-10lambda*6*-thia-dibenzo[a,d]cycloheptene-8-carboxylic acid methyl ester] | 12 | 64.9 ± 3.97 |  |  | 
 |  | Cc1cc(C(=O)O)cc2c1Oc1c(Cl)cc(N)cc1CS2(=O)=O [Example 3, 2-Amino-4-chloro-6-methyl-10,10-dioxo-10,11-dihydro-5-oxa-10lambda*6*-thia-dibenzo[a,d]cycloheptene-8-carboxylic acid sodium salt] |  |  | 40.7 ± 12.7 |  | 
 |  | Cc1cc(C(=O)O)cc2c1Oc1c(Cl)cc(NC=O)cc1CS2(=O)=O [Example 7, 4-Chloro-2-formylamino-6-methyl-10,10-dioxo-10,11-dihydro-5-oxa-10lambda*6*-thia-dibenzo[a,d]cycloheptene-8-carboxylic acid] |  |  | 55.8 ± 9.24 |  | 
212 to 215 °C | 21 | Cc1cc(C(=O)OC(C)C)cc2c1Oc1c(Cl)cc(NC=O)cc1CS2(=O)=O [Example 11, 4-Chloro-2-formylamino-6-methyl-10,10-dioxo-10,11-dihydro-5-oxa-10lambda*6*-thia-dibenzo[a,d]cycloheptene-8-carboxylic acid isopropyl ester] | 25 |  | 77.9 ± 9.85 | 51 | 
277 to 280 °C | 0.18 | COC(=O)c1cc(C)c2c(c1)S(=O)(=O)Cc1cc(N3CCNCC3)cc(Cl)c1O2.Cl [Example 16, 4-Chloro-6-methyl-10,10-dioxo-2-piperazin-1-yl-10,11-dihydro-5-oxa-10lambda*6*-thia-dibenzo[a,d]-cycloheptene-8-carboxylic acid methyl ester hydrochloride] | 62 |  | 72.2 ± 3.17 | 41 | 
 |  | Cc1cc(C(=O)O)cc2c1Oc1c(Cl)cc(N3CCNCC3)cc1CS2(=O)=O [Example 18, 4-Chloro-6-methyl-10,10-dioxo-2-piperazin-1-yl-10,11-dihydro-5-oxa-10lambda*6*-thia-dibenzo[a,d]cycloheptene-8-carboxylic acid] |  |  | 22.7 ± 8.47 |  | 
 | 1.1 | COC(=O)c1cc(C)c2c(c1)S(=O)(=O)Cc1cc(N3CCN(C=O)CC3)cc(Cl)c1O2 [Example 20, 4-Chloro-2-(4-formyl-piperazin-1-yl)-6-methyl-10,10-dioxo-10,11-dihydro-5-oxa-10lambda*6*-thia-dibenzo[a,d]cycloheptene-8-carboxylic acid methyl ester] | 24 |  |  |  | 27.9 ± 17.5
 | 4 | COC(=O)c1cc(C)c2c(c1)S(=O)(=O)Cc1cc(N3CCN(C(C)=O)CC3)cc(Cl)c1O2 [Example 21, 2-(4-Acetyl-piperazin-1-yl)-4-chloro-6-methyl-10,10-dioxo-10,11-dihydro-5-oxa-10lambda*6*-thia-dibenzo[a,d]cycloheptene-8-carboxylic acid methyl ester] | 44 |  |  |  | 54.6 ± 11.7
 | 0.88 | COC(=O)c1cc(C)c2c(c1)S(=O)(=O)Cc1cc(N3CCN(CCO)CC3)cc(Cl)c1O2 [Example 22, 4-Chloro-2-[4-(2-hydroxy-ethyl)-piperazin-1-yl]-6-methyl-10,10-dioxo-10,11-dihydro-5-oxa-10lambda*6*-thia-dibenzo[a,d]cycloheptene-8-carboxylic acid methyl ester] | 16 |  | 57.7 ± 5.66 |  | 
201 to 204 °C | 3.87 ± 1.42 | COC(=O)c1cc(C)c2c(c1)S(=O)(=O)Cc1cc(N3CCN(C(=O)c4ccccc4C)CC3)cc(Cl)c1O2 [Example 24, 4-Chloro-6-methyl-2-[4-(2-methyl-benzoyl)-piperazin-1-yl]-10,10-dioxo-10,11-dihydro-5-oxa-10lambda*6*-thia-dibenzo[a,d]cycloheptene-8-carboxylic acid methyl ester] | 03 |  |  | 74 | 17.6 ± 8.72
 | 0.6 | COC(=O)c1cc(C)c2c(c1)S(=O)(=O)Cc1cc(N3CCN(S(C)(=O)=O)CC3)cc(Cl)c1O2 [Example 25, 4-Chloro-2-(4-methanesulfonyl-piperazin-1-yl)-6-methyl-10,10-dioxo-10,11-dihydro-5-oxa-10lambda*6*-thia-dibenzo[a,d]cycloheptene-8-carboxylic acid methyl ester] | 18 |  |  |  | 33.6 ± 16.5
262 to 264 °C | 10.5 | Cc1cc(C(=O)OC(C)C)cc2c1Oc1c(Cl)cc(N3CCNCC3)cc1CS2(=O)=O.Cl [Example 28, 4-Chloro-6-methyl-10,10-dioxo-2-piperazin-1-yl-10,11-dihydro-5-oxa-10lambda*6*-thia-dibenzo[a,d]cycloheptene-8-carboxylic acid isopropyl ester hydrochloride] | 15 |  |  | 70 | 
235 to 237 °C | 0.16 | COC(=O)c1cc(C)c2c(c1)S(=O)(=O)Cc1ccc(N3CCNCC3)c(Cl)c1O2.Cl [Example 32, 4-Chloro-6-methyl-10,10-dioxo-3-piperazin-1-yl-10,11-dihydro-5-oxa-10lambda*6*-thia-dibenzo[a,d]cycloheptene-8-carboxylic acid methyl ester hydrochloride] | 27 |  |  | 96 | 
280 °C (dec.) | 0.2 | COC(=O)Cc1cc(C)c2c(c1)S(=O)(=O)Cc1cc(N3CCNCC3)cc(Cl)c1O2.Cl [Example 33, (4-Chloro-6-methyl-10,10-dioxo-2-piperazine-1-yl-10,11-dihydro-5-oxa-10lambda*6*-thia-dibenzo[a,d]cyclohepten-8-yl)-acetic acid methyl ester hydrochloride] | 29 |  |  | 95 | 
